From US8933195B2, “Histone deacetylase inhibitors and synthetic method thereof and use thereof in manufacture of medicaments” (Nanjing Yoko Biomedical R & D Ltd., priority 2011, dated 2015)

How the values were obtained:
[1] = system: MCF-7 (human breast cancer cells); assay: MTT cancer cell growth inhibition; format: cell-based; settings: MCF7, 72 h
Excerpt: (§1) 1. Experimental principles: the inhibition of cancer cell growth with compounds is detected by an MTT method. The principle of the MTT method is as follows: yellow thiazolyl blue may penetrate through cell membranes and enter into cells, succinate dehydrogenase in living cell mitochondria may reduce exogenous MTT into water-insoluble ianthinus acicular Formazan crystals which deposit in the cells, the crystals can be dissolved with dimethyl sulfoxide (DMSO), the optical density of the crystals is detected with an enzyme-linked immunometric meter at the wavelength of 490 nm/570 nm, and the number of cells can be indirectly reflected.
(§2) 2. Experimental materials: the used cancer cell lines are Hela (human cervical cancer cells), MCF-7 (human breast cancer cells), BGC-823 (human gastric cancer cells), A549 (human lung cancer cells), HT1080 (human fibrosarcoma cells), A431 (human epidermal squamous cell carcinoma cells), HUVEC (human umbilical vein endothelial cells), DU145 (human prostate cancer cells), K562 (human leukemia cells), U937 (human leukemia cells), Pac-1 (human pancreatic cancer cells), and MOLT-4 (human acute lymphoblastic leukemia cells), which are cultured with a DMEM+10% FBS culture medium or a 1640+10% FBS culture medium, respectively.
(§3) Experimental groups: 190 μl cell suspension+10 μl pharmaceuticals in different concentrations (the final concentration is 10^−5-10^−10M)
(§4) Negative control group: 190 μl cell suspension+10 μl 2% DMSO (the final concentration of DMSO is 0.1%)
(§5) a) Cells are inoculated on a 96-pore plate, with 1500 cells and 190 μl for each hole, and cultured overnight in a 5% CO2 incubator at 37.
(§6) b) 10 μl of different pharmaceuticals is added into each hole the next day, with the final concentration of the pharmaceuticals of 10^−5-10^−10M and three parallel holes, and incubated for 72 h in a 5% CO2 incubator at 37.
(§7) c) 20 μl of 5 mg/mL MTT is added into each hole, and incubated for 4 h in a 5% CO2 incubator at 37.
(§8) d) Supernatant is removed. 100 μl of DMSO is added into each hole and vibrated.
(§9) e) The reading is 570 nm. The cell survival rate is calculated.

[2] = system: Hela (human cervical cancer cells); assay: MTT cancer cell growth inhibition; format: cell-based; settings: 72 h
Excerpt: as §1, §2, §3, §4, §5, §6, §7, §8, §9

[3] = system: U937 (human leukemia cells); assay: MTT cancer cell growth inhibition; format: cell-based; settings: U-937, 72 h
Excerpt: as §1, §2, §3, §4, §5, §6, §7, §8, §9

[4] = system: HT1080 (human fibrosarcoma cells); assay: MTT cancer cell growth inhibition; format: cell-based; settings: HT-1080, 72 h
Excerpt: as §1, §2, §3, §4, §5, §6, §7, §8, §9

[5] = system: A549 (human lung cancer cells); assay: MTT cancer cell growth inhibition; format: cell-based; settings: 72 h
Excerpt: as §1, §2, §3, §4, §5, §6, §7, §8, §9

[6] = system: MOLT-4 (human acute lymphoblastic leukemia cells); assay: MTT cancer cell growth inhibition; format: cell-based; settings: 72 h
Excerpt: as §1, §2, §3, §4, §5, §6, §7, §8, §9

[7] = system: BGC-823 (human gastric cancer cells); assay: MTT cancer cell growth inhibition; format: cell-based; settings: 72 h, read-out: GI50 BGC823
Excerpt: as §1, §2, §3, §4, §5, §6, §7, §8, §9

PANC-1 = assay: MTT cancer cell growth inhibition; format: cell-based; settings: Homo sapiens, 72 h
Excerpt: as §1, §2, §3, §4, §5, §6, §7, §8, §9

[8] = system: DU145 (human prostate cancer cells); assay: MTT cancer cell growth inhibition; format: cell-based; settings: DU-145, 72 h
Excerpt: as §1, §2, §3, §4, §5, §6, §7, §8, §9

Incap = assay: MTT cancer cell growth inhibition; format: cell-based; settings: 72 h
HDAC1 = HDAC1 (Homo sapiens, UniProt Q13547); assay: Measurement of biochemical activities of HDAC (fluorescently-labeled acetylated lysine substrate); settings: read-out: IC50 HDAC1
Chain of HDAC1 (Q13547 whole entry, species assumed): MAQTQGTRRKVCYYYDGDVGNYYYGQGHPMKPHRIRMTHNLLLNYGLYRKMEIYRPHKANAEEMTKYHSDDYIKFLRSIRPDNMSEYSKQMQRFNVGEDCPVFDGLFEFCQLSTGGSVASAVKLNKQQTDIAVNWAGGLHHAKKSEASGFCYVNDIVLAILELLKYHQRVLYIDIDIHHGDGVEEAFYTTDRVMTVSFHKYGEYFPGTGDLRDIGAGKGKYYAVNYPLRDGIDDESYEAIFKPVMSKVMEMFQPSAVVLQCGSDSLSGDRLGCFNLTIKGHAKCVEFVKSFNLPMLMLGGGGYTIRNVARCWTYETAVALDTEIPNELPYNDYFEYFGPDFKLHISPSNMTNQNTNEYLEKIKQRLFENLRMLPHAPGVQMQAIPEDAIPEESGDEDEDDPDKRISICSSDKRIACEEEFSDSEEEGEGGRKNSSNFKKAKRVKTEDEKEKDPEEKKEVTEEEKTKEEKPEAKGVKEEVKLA
Procedure: (§10) 1. Measurement principles: the measurement of biochemical activities of compounds is determined according to the degree of the compounds inhibiting the deacylation of HDAC enzyme. After the fluorescently-labeled substrate containing acetylated lysine side chain reacts with the HDAC enzyme, the fluorogenic substrate is deacetylated. After the deacetylated fluorescently-labeled substrate is cracked by the enzyme, a fluorescent substance is released. The fluorescent substance generates emitting light of 460 nm under the excitation of light of 360 nm.
(§11) 2. Detailed steps: the substrate of HDAC is diluted to […] (the reaction concentration is […]) with a reaction buffer. HDAC enzyme is diluted to a proper concentration. The compounds to be detected in different concentrations are added. The mixture reacts for 30 min at 37. Then the developer with the same volume and twice concentration of the substrate is added into the mixture. The mixture is incubated for 15 min at room temperature. Finally, the reading is measured with a micro plate scanner. The excitation light is 360 nm, the emitting light is 460 nm, and the data is processed with Prime 4 software.

HDAC7 = biological target: T1, HDAC7 (Homo sapiens, UniProt Q8WUI4); assay: as above
T1 sequence (Q8WUI4 1-952): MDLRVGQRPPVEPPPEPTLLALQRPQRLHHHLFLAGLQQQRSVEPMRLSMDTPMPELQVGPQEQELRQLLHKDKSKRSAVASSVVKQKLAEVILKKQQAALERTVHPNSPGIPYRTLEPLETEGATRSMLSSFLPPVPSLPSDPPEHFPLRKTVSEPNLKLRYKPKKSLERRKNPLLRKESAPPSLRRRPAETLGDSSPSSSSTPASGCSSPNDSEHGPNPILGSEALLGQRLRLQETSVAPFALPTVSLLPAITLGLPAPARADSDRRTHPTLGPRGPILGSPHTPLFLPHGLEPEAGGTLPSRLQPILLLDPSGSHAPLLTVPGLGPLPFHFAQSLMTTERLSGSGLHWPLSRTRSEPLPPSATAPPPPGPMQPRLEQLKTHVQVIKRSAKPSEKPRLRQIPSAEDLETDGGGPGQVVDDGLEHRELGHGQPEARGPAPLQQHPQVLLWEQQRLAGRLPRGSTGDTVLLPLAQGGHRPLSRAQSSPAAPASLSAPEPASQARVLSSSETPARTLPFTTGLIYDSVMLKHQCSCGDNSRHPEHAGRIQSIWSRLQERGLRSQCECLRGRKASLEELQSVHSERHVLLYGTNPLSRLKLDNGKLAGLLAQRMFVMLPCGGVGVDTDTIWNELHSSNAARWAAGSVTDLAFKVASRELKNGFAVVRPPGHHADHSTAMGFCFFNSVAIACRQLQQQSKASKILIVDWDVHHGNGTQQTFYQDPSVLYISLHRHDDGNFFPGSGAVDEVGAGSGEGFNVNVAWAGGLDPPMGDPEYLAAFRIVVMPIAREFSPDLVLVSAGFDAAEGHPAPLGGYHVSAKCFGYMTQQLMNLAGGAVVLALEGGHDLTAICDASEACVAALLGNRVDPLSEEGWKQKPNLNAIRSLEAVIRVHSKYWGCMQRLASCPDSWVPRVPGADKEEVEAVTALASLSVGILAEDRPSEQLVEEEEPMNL
Procedure: as §10, §11

| SMILES | GI50 [1] [nM] | GI50 [2] [nM] | GI50 [3] [nM] | GI50 [4] [nM] | GI50 [5] [nM] | GI50 [6] [nM] | GI50 [7] [nM] | GI50 (PANC-1) [nM] | GI50 [8] [nM] | GI50 (Incap) [nM] | IC50 (HDAC1) [nM] | IC50 HDAC7 (HDAC7) |
| --- | --- | --- | --- | --- | --- | --- | --- | --- | --- | --- | --- | --- |
| C/C=C1\NC(=O)C2N=C(CNC(=O)C[C@@H](/C=C/CCSC(=O)CCCCCCC)OC(=O)[C@H](C(C)C)NC1=O)S[C@@H]2C (stereo partly drawn) [Compound 2-3] | 21400 | 26500 | 1230 | 40500 | 2600 | 23100 | 1560 | 2650 | 560 | 500 | < 10000 | no activity |
| C/C=C1\NC(=O)C2C=NC(=N2)CNC(=O)C[C@@H](/C=C/CCSC(=O)CCCCCCC)OC(=O)[C@H](C(C)C)NC1=O (stereo partly drawn) [Compound 2-4] | 52600 | 23000 | 18600 | 1600 | 4500 | 900 | 2600 | 4200 | 6400 | 85200 | < 10000 | no activity |
| C/C=C1\NC(=O)c2csc(n2)[C@H](C)NC(=O)C[C@@H](/C=C/CCSC(=O)CCCCCCC)OC(=O)[C@H](C(C)C)NC1=O [Compound 4-2] | 150 | 1230 | 5010 | 30 | 25100 | 2000 | 2120 | 1030 | 4020 | 1230 | < 100 | no activity |
| C/C=C1\NC(=O)C2N=C(CNC(=O)C[C@@H](/C=C/CCSC(=O)CCCCCCC)OC(=O)[C@H](C(C)C)NC1=O)O[C@@H]2C (stereo partly drawn) [Compound 2-2] | 2300 | 600 | 10200 | 4500 | 2000 | 26200 | 1600 | 600 | 56500 | 23600 | < 10000 | no activity |
| C/C=C1\NC(=O)c2csc(n2)CNC(=O)C[C@@H](/C=C/CCSC(=O)Cc2ccccc2)OC(=O)[C@H](C(C)C)NC1=O [Compound 6-4] | 690 | 500 | 6350 | 1330 | 4600 | 2650 | 2550 | 1250 | 420 | 630 | < 10000 | no activity |
| C=C1NC(=O)c2csc(n2)CNC(=O)C[C@@H](/C=C/CCSC(=O)CCCCCCC)OC(=O)[C@H](C(C)C)NC1=O [Compound 3-1] | 2100 | 10 | 21500 | 1060 | 350 | 150 | 1200 | 10600 | 2030 | 5400 | < 10000 | no activity |
| C/C=C1\NC(=O)c2csc(n2)CNC(=O)C[C@@H](/C=C/CCSC(=O)CCCCCCC)OC(=O)CNC1=O [Compound 1-1] | 90 | 400 | 7 | 50 | 90 | 9 | 100 | 300 | 8 | 50 | < 100 | no activity |
| CCCCCCCC(=O)SCC/C=C/[C@@H]1CC(=O)NCc2nc(cs2)C(=O)NCC(=O)N[C@@H](C(C)C)C(=O)O1 [Compound 3-3] | 1200 | 450 | 140 | 60 | 1090 | 2120 | 5940 | 4130 | 50 | 450 | < 10000 | no activity |
| C/C=C1\NC(=O)c2csc(n2)CNC(=O)C[C@@H](/C=C/CCSC(=O)CCCCCCC)OC(=O)[C@H](CC(C)C)NC1=O [Compound 1-11] | 90 | 100 | 9 | 80 | 5090 | 10 | 160 | 800 | 6 | 30 | < 100 | no activity |
| C/C=C1\NC(=O)c2cccc(c2)CNC(=O)C[C@@H](/C=C/CCSC(=O)CCCCCCC)OC(=O)[C@H](C(C)C)NC1=O [Compound 2-6] | 650 | 500 | 12600 | 12000 | 4200 | 64500 | 56200 | 45000 | 560 | 11600 | < 10000 | no activity |
| C/C=C1\NC(=O)c2coc(n2)CNC(=O)C[C@@H](/C=C/CCSC(=O)CCCCCCC)OC(=O)[C@H](C(C)C)NC1=O [Compound 2-1] | 500 | 200 | 1300 | 4100 | 900 | 100 | 5000 | 2060 | 50 | 2010 | < 100 | no activity |
| C/C=C1\NC(=O)c2csc(n2)CNC(=O)C[C@@H](/C=C/CCSC(=O)CCCCCCC)OC(=O)[C@H](Cc2cccc3ccccc23)NC1=O [Compound 1-9] | 50 | 50 | 5 | 40 | 30 | 10 | 50 | 600 | 3 | 30 | < 10000 | no activity |
